Experimental findings from BindingDB's records for doi:10.1016/j.bmc.2013.02.056 (Ludwig-Maximilians-University Munich, 2013) are described below.

Assay [1] concerns the target T1, Sodium- and chloride-dependent GABA transporter 3 (Mus musculus, UniProt P31650).
T1 sequence (P31650 whole entry): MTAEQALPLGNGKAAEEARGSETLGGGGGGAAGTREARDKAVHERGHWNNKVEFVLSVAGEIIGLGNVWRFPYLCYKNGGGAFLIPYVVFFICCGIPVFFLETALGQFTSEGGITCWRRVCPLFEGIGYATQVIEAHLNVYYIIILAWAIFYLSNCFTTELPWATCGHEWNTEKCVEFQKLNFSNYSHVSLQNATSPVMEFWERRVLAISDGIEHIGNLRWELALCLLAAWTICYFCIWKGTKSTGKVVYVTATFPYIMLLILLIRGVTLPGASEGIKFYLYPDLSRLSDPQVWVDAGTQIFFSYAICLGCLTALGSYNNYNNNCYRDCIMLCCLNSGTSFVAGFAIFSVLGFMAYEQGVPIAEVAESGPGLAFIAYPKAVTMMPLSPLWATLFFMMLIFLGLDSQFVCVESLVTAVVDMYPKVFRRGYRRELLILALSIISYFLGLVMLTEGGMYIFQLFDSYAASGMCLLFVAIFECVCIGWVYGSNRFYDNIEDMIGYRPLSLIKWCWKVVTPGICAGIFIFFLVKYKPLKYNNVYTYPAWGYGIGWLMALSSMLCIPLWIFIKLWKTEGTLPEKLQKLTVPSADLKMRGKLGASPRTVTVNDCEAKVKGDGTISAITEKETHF
The assay is described as follows: Inhibition of mouse GAT3 expressed in HEK cells assessed as inhibition of [3H]-GABA uptake after 25 mins by liquid scintillation counting analysis.

Assay [2] addresses T2, Sodium- and chloride-dependent GABA transporter 2 (Mus musculus, UniProt P31649).
T2 sequence (P31649 whole entry): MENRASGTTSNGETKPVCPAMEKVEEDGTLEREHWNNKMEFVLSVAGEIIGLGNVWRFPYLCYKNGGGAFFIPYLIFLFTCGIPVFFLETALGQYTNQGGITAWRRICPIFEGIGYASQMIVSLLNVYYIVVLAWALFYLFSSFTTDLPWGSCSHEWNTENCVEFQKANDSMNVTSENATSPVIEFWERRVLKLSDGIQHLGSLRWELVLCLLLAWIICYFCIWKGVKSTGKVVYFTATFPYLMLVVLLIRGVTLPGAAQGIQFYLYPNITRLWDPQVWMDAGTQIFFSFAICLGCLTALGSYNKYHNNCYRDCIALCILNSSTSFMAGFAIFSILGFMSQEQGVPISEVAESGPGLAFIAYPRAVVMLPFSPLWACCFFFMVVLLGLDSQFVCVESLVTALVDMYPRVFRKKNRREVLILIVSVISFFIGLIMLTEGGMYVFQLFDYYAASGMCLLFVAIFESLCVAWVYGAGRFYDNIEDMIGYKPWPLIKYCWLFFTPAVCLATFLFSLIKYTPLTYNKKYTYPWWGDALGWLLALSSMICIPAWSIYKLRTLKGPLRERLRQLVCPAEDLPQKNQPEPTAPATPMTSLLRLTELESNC
The assay is described as follows: Inhibition of mouse GAT2 expressed in HEK cells assessed as inhibition of [3H]-GABA uptake after 25 mins by liquid scintillation counting analysis.

For the compound `O=C(c1cccc(F)c1)c1ccc(F)cc1/C=C/OCCN1CCCC(C(=O)O)C1` (centres undefined), the IC50 in assay [1] was 339 µM; in assay [2], 60.3 µM. On to `O=C(O)C1CCCN(CCO/C=C\c2cc(F)ccc2Cc2ccc(F)cc2)C1` (centres undefined), for which the IC50 is 50.1 µM in assay [1] and 91.2 µM in assay [2]. Turning to `O=C(O)C1CCCN(CCO/C=C\c2cc(F)ccc2Cc2ccccc2F)C1` (centres undefined), the IC50 in assay [1] came to 28.2 µM.

Turning to `O=C(c1ccccc1F)c1cc(F)ccc1/C=C\OCCN1CCCC(C(=O)O)C1` (centres undefined), the IC50 in assay [2] was 66.1 µM.

As for `O=C(O)C1CCCN(CCO/C=C\c2ccc(F)cc2Cc2ccccc2F)C1` (centres undefined), the IC50 in assay [1] is 19.5 µM. Same read-out and setting: the same measure for `O=C(O)C1CCCN(CCO/C=C\c2ccc(F)cc2Cc2ccc(F)cc2)C1` (centres undefined): 34.7 µM. For the compound `O=C(c1ccccc1F)c1cc(F)ccc1/C=C/OCCN1CCCC(C(=O)O)C1` (centres undefined), the values for the half-inhibitory concentration (IC50) in assay [1] and in assay [2] were 372 µM and 141 µM, respectively. `O=C(O)C1CCCN(CCO/C=C\c2cc(F)ccc2Cc2cccc(F)c2)C1` (centres undefined): in assay [1], the IC50 was 20 µM. Same read-out and setting: then `O=C(O)C1CCCN(CCO/C=C/c2ccccc2Cc2ccccc2)C1` (centres undefined), with 37.2 µM.

Consider `O=C(O)[C@@H]1CCCN(CCC=C(c2ccccc2)c2ccccc2)C1` [(R)-1-(4,4-Diphenyl-but-3-enyl)-piperidine-3-carboxylic acid], for which the IC50 in assay [1] amounted to 195 µM; in assay [2] it was 372 µM.
